Measurements published in patent US12202835B2, “Substituted aromatic ring-linked dioxinoquinazolines and dioxinoquinolines as kinase inhibitors” (BEIJING SCITECH-MQ PHARMACEUTICALS LIMITED, priority 2018, dated 2025).
pIC50: −log10 of the molar value.

Key:
Ba/F3-AXL cells = assay: Assay for inhibiting the proliferation of Ba/F3-AXL cells (CCK-8); format: cell-based; settings: 72 hours of incubation, medium with 100 ng/mL hGas6, CCK-8
Description: The values were then imported into Graphpad Prism 5 software for curve fitting, and IC50 was calculated.

Ba/F3 LMNA-NTRK1 cells = assay: Assay for inhibiting the proliferation of Ba/F3 LMNA-NTRK1 cells (CCK-8); format: cell-based; settings: Mus musculus, BaF3
Method in brief: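 Viability was read as absorbance at 450 nm following 1–2 h CCK-8 incubation at 37 °C, relative to control and blank wells.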

TRKA kinase = TRKA kinase (Homo sapiens (Human), UniProt P04629); assay: Assay of small molecular compounds for inhibiting the activity of TRKA kinase (LANCE TR-FRET); format: biochemical
Method in brief: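 TRKA (supplied as 2 nM 2× solution) was pre-reacted with compounds for 5 min at room temperature before a 4× ULight-TK peptide/ATP mix (400 nM/40 μM) started the 60-min dark reaction at 1% DMSO. After stop and 60-min detection, TR-FRET was read.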

c-MET kinase = c-MET kinase (Homo sapiens (Human), UniProt P08581); assay: Assay of small molecular compounds for inhibiting the activity of c-MET kinase (LANCE TR-FRET); format: biochemical; settings: read-out: CMET IC50
Method in brief: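 Eleven final concentrations from 2500 nM down to 0.042 nM, in 4% DMSO, were tested against human c-MET (2× stock 2 nM), with compound and enzyme premixed for 5 min. The phosphorylation reaction used 4× stock of 400 nM ULight-JAK-1 peptide and 40 μM ATP for 60 min at room temperature, then stop and detection steps. TR-FRET percent inhibition against positive and negative controls gave the IC50.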

Chain of TRKA kinase (P04629 33-796): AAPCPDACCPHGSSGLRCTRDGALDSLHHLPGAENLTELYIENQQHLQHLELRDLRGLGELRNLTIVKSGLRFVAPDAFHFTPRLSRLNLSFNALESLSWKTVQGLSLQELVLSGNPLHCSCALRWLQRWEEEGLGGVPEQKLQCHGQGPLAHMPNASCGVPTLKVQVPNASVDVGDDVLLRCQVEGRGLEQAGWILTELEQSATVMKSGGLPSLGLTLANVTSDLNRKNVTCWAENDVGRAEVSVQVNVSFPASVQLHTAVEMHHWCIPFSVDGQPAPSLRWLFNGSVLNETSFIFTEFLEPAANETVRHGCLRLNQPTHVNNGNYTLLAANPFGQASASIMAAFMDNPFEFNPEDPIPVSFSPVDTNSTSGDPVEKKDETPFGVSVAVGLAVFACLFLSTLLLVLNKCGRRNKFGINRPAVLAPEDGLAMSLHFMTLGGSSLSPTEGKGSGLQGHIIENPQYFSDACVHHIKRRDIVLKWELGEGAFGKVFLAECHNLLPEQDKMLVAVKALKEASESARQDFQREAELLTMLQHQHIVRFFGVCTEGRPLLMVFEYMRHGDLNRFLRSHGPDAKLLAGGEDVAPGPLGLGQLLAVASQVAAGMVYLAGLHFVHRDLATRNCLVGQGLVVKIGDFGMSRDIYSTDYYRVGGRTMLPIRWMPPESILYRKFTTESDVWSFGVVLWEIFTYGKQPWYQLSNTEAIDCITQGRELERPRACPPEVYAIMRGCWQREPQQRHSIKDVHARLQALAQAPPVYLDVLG
Chain of c-MET kinase (P08581 25-1390): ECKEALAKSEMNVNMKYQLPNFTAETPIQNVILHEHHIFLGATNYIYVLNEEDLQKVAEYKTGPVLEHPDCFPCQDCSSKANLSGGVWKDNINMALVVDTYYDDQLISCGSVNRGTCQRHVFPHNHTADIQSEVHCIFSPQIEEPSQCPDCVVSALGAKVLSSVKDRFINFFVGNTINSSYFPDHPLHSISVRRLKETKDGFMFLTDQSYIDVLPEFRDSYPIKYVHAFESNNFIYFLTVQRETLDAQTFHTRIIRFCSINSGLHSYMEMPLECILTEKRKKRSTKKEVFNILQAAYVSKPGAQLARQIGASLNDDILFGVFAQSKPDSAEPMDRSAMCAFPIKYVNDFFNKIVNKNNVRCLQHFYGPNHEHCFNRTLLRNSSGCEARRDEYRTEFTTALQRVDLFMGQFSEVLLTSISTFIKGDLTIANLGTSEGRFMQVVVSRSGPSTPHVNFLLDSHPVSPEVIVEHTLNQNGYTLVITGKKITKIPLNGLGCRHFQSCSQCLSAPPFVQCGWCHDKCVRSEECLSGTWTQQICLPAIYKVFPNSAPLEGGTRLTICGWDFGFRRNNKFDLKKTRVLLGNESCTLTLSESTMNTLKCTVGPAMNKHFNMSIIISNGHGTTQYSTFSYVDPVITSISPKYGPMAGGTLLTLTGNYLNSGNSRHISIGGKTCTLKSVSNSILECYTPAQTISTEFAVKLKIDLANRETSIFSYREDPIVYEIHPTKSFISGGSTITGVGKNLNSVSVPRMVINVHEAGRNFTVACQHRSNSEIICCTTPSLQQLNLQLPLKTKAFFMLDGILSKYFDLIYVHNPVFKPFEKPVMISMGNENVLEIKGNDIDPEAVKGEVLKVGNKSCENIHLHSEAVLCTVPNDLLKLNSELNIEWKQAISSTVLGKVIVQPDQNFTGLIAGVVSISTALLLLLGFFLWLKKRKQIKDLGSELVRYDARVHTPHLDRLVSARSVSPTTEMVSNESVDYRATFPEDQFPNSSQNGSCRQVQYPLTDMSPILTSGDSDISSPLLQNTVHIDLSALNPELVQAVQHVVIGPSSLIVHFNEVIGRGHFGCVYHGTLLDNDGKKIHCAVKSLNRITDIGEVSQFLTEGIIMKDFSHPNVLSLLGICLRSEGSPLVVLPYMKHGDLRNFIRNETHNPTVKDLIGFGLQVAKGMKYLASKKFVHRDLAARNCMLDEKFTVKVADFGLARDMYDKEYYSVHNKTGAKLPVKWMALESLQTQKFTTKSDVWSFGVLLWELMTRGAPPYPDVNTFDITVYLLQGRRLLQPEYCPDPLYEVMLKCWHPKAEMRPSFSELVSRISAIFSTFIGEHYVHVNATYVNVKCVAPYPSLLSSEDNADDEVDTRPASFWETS

CCOc1ccn(-c2ccc(F)cc2)c(=O)c1C(=O)Nc1ccc(Oc2ccnc3cc(OCC(C)(C)O)c4c(c23)OCCO4)c(F)c1 [Example 120, N-(3-fluoro-4-((5-(2-hydroxy-2-methylpropoxy)-2,3-dihydro-[1,4]dioxino[2,3-f]quinolin-10-yl)oxy)phenyl)-4-ethoxy-1-(4-fluorophenyl)-2-oxo-1,2-dihydropyridine-3-carboxamide]
pIC50 (Ba/F3-AXL cells): > 7.30 | pIC50 (Ba/F3 LMNA-NTRK1 cells): > 7.30 | pIC50 (TRKA kinase): > 7.30 | pIC50 (c-MET kinase): ≥ 7.30

CCOc1ccn(-c2ccc(F)cc2)c(=O)c1C(=O)Nc1ccc(Oc2ccnc3cc(OCCCC#N)c4c(c23)OCCO4)cc1Cl [Example 134, N-(2-chloro-4-((5-(3-cyanopropoxy)-2,3-dihydro-[1,4]dioxino[2,3-f]quinolin-10-yl)oxy)phenyl)-1-(4-fluorophenyl)-4-ethoxy-2-oxo-1,2-dihydropyridine-3-carboxamide]
pIC50 (Ba/F3-AXL cells): > 7.30 | pIC50 (Ba/F3 LMNA-NTRK1 cells): > 7.30 | pIC50 (TRKA kinase): > 7.30 | pIC50 (c-MET kinase): ≥ 7.30

COc1cc2nccc(Oc3ccc(NC(=O)c4cccn(-c5ccc(F)cc5)c4=O)cc3F)c2c2c1OCCO2 [Example 17, N-(3-fluoro-4-((5-methoxy-2,3-dihydro-[1,4]dioxino[2,3-f]quinolin-10-yl)oxy)phenyl)-1-(4-fluorophenyl)-2-oxo-1,2-dihydropyridine-3-carboxamide]
pIC50 (Ba/F3-AXL cells): > 7.30 | pIC50 (Ba/F3 LMNA-NTRK1 cells): > 7.30 | pIC50 (TRKA kinase): > 7.30 | pIC50 (c-MET kinase): ≥ 7.30

COc1cn(-c2ccc(F)cc2C)nc1C(=O)Nc1ccc(Oc2ccnc3cc(OCCCN4CCOCC4)c4c(c23)OCCO4)c(F)c1 [Example 27, 1-(4-fluoro-2-methylphenyl)-N-(3-fluoro-4-((5-(3-morpholinopropoxy)-2,3-dihydro-[1,4]dioxino[2,3-f]quinolin-10-yl)oxy)phenyl)-4-methoxy-1H-pyrazole-3-carboxamide]
pIC50 (Ba/F3-AXL cells): > 7.30 | pIC50 (Ba/F3 LMNA-NTRK1 cells): > 7.30 | pIC50 (TRKA kinase): > 7.30 | pIC50 (c-MET kinase): ≥ 7.30

CCn1cc(C(=O)Nc2ccc(Oc3ccnc4cc(OCCCN5CCCCC5)c5c(c34)OCCO5)c(F)c2)c(=O)n(-c2ccc(F)cc2)c1=O [Example 41, N-(3-fluoro-4-((5-(3-(piperidin-1-yl)propoxy)-2,3-dihydro-[1,4]dioxino[2,3-f]quinolin-10-yl)oxy)phenyl)-3-(4-fluorophenyl)-1-ethyl-2,4-dioxo-1,2,3,4-tetrahydropyrimidine-5-carboxamide]
pIC50 (Ba/F3-AXL cells): > 7.30 | pIC50 (Ba/F3 LMNA-NTRK1 cells): > 7.30 | pIC50 (TRKA kinase): > 7.30 | pIC50 (c-MET kinase): ≥ 7.30

COCCOc1cc2nccc(Oc3ccc(NC(=O)c4cn(C)c(=O)n(-c5ccc(F)cc5)c4=O)cc3F)c2c2c1OCCO2 [Example 42, N-(3-fluoro-4-((5-(2-methoxyethoxy)-2,3-dihydro-[1,4]dioxino[2,3-f]quinolin-10-yl)oxy)phenyl)-3-(4-fluorophenyl)-1-methyl-2,4-dioxo-1,2,3,4-tetrahydropyrimidine-5-carboxamide]
pIC50 (Ba/F3-AXL cells): > 7.30 | pIC50 (Ba/F3 LMNA-NTRK1 cells): > 7.30 | pIC50 (TRKA kinase): > 7.30 | pIC50 (c-MET kinase): ≥ 7.30

COc1ccn(-c2ccc(F)cc2)c(=O)c1C(=O)Nc1ccc(Oc2ccnc3cc(OCCCN4CCCCC4)c4c(c23)OCCO4)c(F)c1 [Example 32, N-(3-fluoro-4-((5-(3-(piperidin-1-yl)propoxy)-2,3-dihydro-[1,4]dioxino[2,3-f]quinolin-10-yl)oxy)phenyl)-1-(4-fluorophenyl)-4-methoxy-2-oxo-1,2-dihydropyridine-3-carboxamide]
pIC50 (Ba/F3-AXL cells): > 7.30 | pIC50 (Ba/F3 LMNA-NTRK1 cells): > 7.30 | pIC50 (TRKA kinase): > 7.30 | pIC50 (c-MET kinase): ≥ 7.30

CCOc1ccn(-c2ccc(F)cc2)c(=O)c1C(=O)Nc1ccc(Oc2ccnc3cc(OCCCN4CCCCC4)c4c(c23)OCCO4)c(F)c1 [Example 33, N-(3-fluoro-4-((5-(3-(piperidin-1-yl)propoxy)-2,3-dihydro-[1,4]dioxino[2,3-f]quinolin-10-yl)oxy)phenyl)-1-(4-fluorophenyl)-4-ethoxy-2-oxo-1,2-dihydropyridine-3-carboxamide]
pIC50 (Ba/F3-AXL cells): > 7.30 | pIC50 (Ba/F3 LMNA-NTRK1 cells): > 7.30 | pIC50 (TRKA kinase): > 7.30 | pIC50 (c-MET kinase): ≥ 7.30

Cn1cc(C(=O)Nc2ccc(Oc3ccnc4cc(OCCCN5CCOCC5)c5c(c34)OCCO5)cc2Cl)c(=O)n(-c2ccc(F)cc2)c1=O [Example 98, N-(2-chloro-4-((5-(3-morpholinopropoxy)-2,3-dihydro-[1,4]dioxino[2,3-f]quinolin-10-yl)oxy)phenyl)-3-(4-fluorophenyl)-1-methyl-2,4-dioxo-1,2,3,4-tetrahydropyrimidine-5-carboxamide]
pIC50 (Ba/F3-AXL cells): > 7.30 | pIC50 (Ba/F3 LMNA-NTRK1 cells): > 7.30 | pIC50 (TRKA kinase): > 7.30 | pIC50 (c-MET kinase): 6.30 to 7.30

CC(C)n1cc(C(=O)Nc2ccc(Oc3ccnc4cc(OCCCN(C)C5CCC5)c5c(c34)OCCO5)c(F)c2)c(=O)n(-c2ccc(F)cc2)c1=O [Example 96, N-(3-fluoro-4-((5-(3-((cyclobutyl)(methyl)amino)propoxy)-2,3-dihydro-[1,4]dioxino[2,3-f]quinolin-10-yl)oxy)phenyl)-3-(4-fluorophenyl)-1-isopropyl-2,4-dioxo-1,2,3,4-tetrahydropyrimidine-5-carboxamide]
pIC50 (Ba/F3-AXL cells): > 7.30 | pIC50 (Ba/F3 LMNA-NTRK1 cells): > 7.30 | pIC50 (TRKA kinase): > 7.30 | pIC50 (c-MET kinase): ≥ 7.30

COc1cc2nccc(Oc3ccc(NC(=O)c4c(OC)ccn(-c5ccc(F)cc5)c4=O)cc3F)c2c2c1OCCO2 [Example 18, N-(3-fluoro-4-((5-methoxy-2,3-dihydro-[1,4]dioxino[2,3-f]quinolin-10-yl)oxy)phenyl)-1-(4-fluorophenyl)-4-methoxy-2-oxo-1,2-dihydropyridine-3-carboxamide]
pIC50 (Ba/F3-AXL cells): > 7.30 | pIC50 (Ba/F3 LMNA-NTRK1 cells): > 7.30 | pIC50 (TRKA kinase): > 7.30 | pIC50 (c-MET kinase): ≥ 7.30

CC(C)n1cc(C(=O)Nc2ccc(Oc3ccnc4cc(OCCCN5CCCCC5)c5c(c34)OCCO5)c(F)c2)c(=O)n(-c2ccc(F)cc2)c1=O [Example 40, N-(3-fluoro-4-((5-(3-(piperidin-1-yl)propoxy)-2,3-dihydro-[1,4]dioxino[2,3-f]quinolin-10-yl)oxy)phenyl)-3-(4-fluorophenyl)-1-isopropyl-2,4-dioxo-1,2,3,4-tetrahydropyrimidine-5-carboxamide]
pIC50 (Ba/F3-AXL cells): > 7.30 | pIC50 (Ba/F3 LMNA-NTRK1 cells): > 7.30 | pIC50 (TRKA kinase): > 7.30 | pIC50 (c-MET kinase): ≥ 7.30

CC(C)n1cc(C(=O)Nc2ccc(Oc3ccnc4cc(OCC(C)(C)O)c5c(c34)OCCO5)c(F)c2)c(=O)n(-c2ccc(F)cc2)c1=O [Example 122, N-(3-fluoro-4-((5-(2-hydroxy-2-methylpropoxy)-2,3-dihydro-[1,4]dioxino[2,3-f]quinolin-10-yl)oxy)phenyl)-3-(4-fluorophenyl)-1-isopropyl-2,4-dioxo-1,2,3,4-tetrahydropyrimidine-5-carboxamide]
pIC50 (Ba/F3-AXL cells): > 7.30 | pIC50 (Ba/F3 LMNA-NTRK1 cells): > 7.30 | pIC50 (TRKA kinase): > 7.30 | pIC50 (c-MET kinase): ≥ 7.30

CCOc1ccn(-c2ccc(F)cc2)c(=O)c1C(=O)Nc1ccc(Oc2ccnc3cc(OC)c4c(c23)OCCO4)c(F)c1 [Example 19, N-(3-fluoro-4-((5-methoxy-2,3-dihydro-[1,4]dioxino[2,3-f]quinolin-10-yl)oxy)phenyl)-1-(4-fluorophenyl)-4-ethoxy-2-oxo-1,2-dihydropyridine-3-carboxamide]
pIC50 (Ba/F3-AXL cells): > 7.30 | pIC50 (Ba/F3 LMNA-NTRK1 cells): > 7.30 | pIC50 (TRKA kinase): > 7.30 | pIC50 (c-MET kinase): ≥ 7.30

CCOc1ccn(-c2ccc(C)cc2)c(=O)c1C(=O)Nc1ccc(Oc2ccnc3cc(OC)c4c(c23)OCCO4)c(F)c1 [Example 112, N-(3-fluoro-4-((5-methoxy-2,3-dihydro-[1,4]dioxino[2,3-f]quinolin-10-yl)oxy)phenyl)-2-oxo-4-ethoxy-1-(4-methylphenyl)-1,2-dihydropyridin-3-carboxamide]
pIC50 (Ba/F3-AXL cells): > 7.30 | pIC50 (Ba/F3 LMNA-NTRK1 cells): > 7.30 | pIC50 (TRKA kinase): > 7.30 | pIC50 (c-MET kinase): ≥ 7.30

Cn1cc(C(=O)Nc2ccc(Oc3ccnc4cc(OCCCN5CCCCC5)c5c(c34)OCCO5)c(F)c2)c(=O)n(-c2ccc(F)cc2)c1=O [Example 39, N-(3-fluoro-4-((5-(3-(piperidin-1-yl)propoxy)-2,3-dihydro-[1,4]dioxino[2,3-f]quinolin-10-yl)oxy)phenyl)-3-(4-fluorophenyl)-1-methyl-2,4-dioxo-1,2,3,4-tetrahydropyrimidine-5-carboxamide]
pIC50 (Ba/F3-AXL cells): > 7.30 | pIC50 (Ba/F3 LMNA-NTRK1 cells): > 7.30 | pIC50 (TRKA kinase): > 7.30 | pIC50 (c-MET kinase): ≥ 7.30

CC(C)n1cc(C(=O)Nc2ccc(Oc3ccnc4cc(OCC5(N)CC5)c5c(c34)OCCO5)c(F)c2)c(=O)n(-c2ccc(F)cc2)c1=O [Example 106, N-(3-fluoro-4-((5-((1-aminocyclopropyl)methoxy)-2,3-dihydro-[1,4]dioxino[2,3-f]quinolin-1 0-yl)oxy)phenyl)-3-(4-fluorophenyl)-1-isopropyl-2,4-dioxo-1,2,3,4-tetrahydropyrimidine-5-carboxamide]
pIC50 (Ba/F3-AXL cells): > 7.30 | pIC50 (TRKA kinase): 6.30 to 7.30 | pIC50 (c-MET kinase): 6.30 to 7.30

COc1ccn(-c2ccc(F)cc2)c(=O)c1C(=O)Nc1ccc(Oc2ncnc3cc(OCCCN4CCOCC4)c4c(c23)OCCO4)c(F)c1 [Example 5, N-(3-fluoro-4-((5-(3-morpholinopropoxy)-2,3-dihydro-[1,4]dioxino[2,3-f]quinazolin-10-yl)oxy)phenyl)-1-(4-fluorophenyl)-4-methoxy-2-oxo-1,2-dihydropyridine-3-carboxamide]
pIC50 (Ba/F3-AXL cells): > 7.30 | pIC50 (TRKA kinase): > 7.30 | pIC50 (c-MET kinase): ≥ 7.30
